# US20250262201A1, “COMPOUNDS AND METHODS USEFUL FOR STABILIZING PHENYLALANINE HYDROXYLASE MUTATIONS” (Agios Pharmaceuticals, Inc., priority 2022, published 2025)
# Target: T1, human PAH with the R408W mutation (Homo sapiens, UniProt P00439, R408W)
# T1 construct: expressed in transfected cells
# T1 sequence (P00439 1-452 R408W): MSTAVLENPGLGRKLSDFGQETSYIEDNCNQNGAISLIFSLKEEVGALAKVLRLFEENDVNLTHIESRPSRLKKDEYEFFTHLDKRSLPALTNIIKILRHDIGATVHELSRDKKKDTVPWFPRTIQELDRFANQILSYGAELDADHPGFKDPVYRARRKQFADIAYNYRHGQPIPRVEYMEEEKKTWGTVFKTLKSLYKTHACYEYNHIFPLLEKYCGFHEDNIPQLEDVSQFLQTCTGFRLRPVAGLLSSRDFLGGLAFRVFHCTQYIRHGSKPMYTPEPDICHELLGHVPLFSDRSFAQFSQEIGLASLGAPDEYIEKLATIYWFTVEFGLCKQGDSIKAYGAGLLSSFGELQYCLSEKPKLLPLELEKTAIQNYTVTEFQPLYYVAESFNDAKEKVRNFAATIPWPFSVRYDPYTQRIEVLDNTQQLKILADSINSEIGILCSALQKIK
# Assay: Cell Based Phenylalanine Flux Assay
# Parameters: scale not given here
# Conditions: A375 R408W cells, 24 hrs with compound, then 20 μM sepiapterin and 800 μM 13C9,15N-Phenylalanine for 4 hours; 13C-Tyrosine by LC-MS; average where tested multiple times
row,AC50,Structure (SMILES)
1,"E, E",Cn1cc(-c2nc(C(F)(F)F)c(C(=O)N3CCc4[nH]cnc4C3c3ncc4ccccc4n3)o2)cn1 (centres unmarked)

# Same assay, conditions: A375 R408W cells, 24 hrs with compound, then 20 μM sepiapterin and 800 μM 13C9,15N-Phenylalanine for 4 hours; 13C-Tyrosine by LC-MS; average where tested multiple times; read-out: AC50
row,AC50,Structure (SMILES)
1,1000 to 5000 nM,Cc1ncoc1C(=O)N1CCc2[nH]cnc2C1c1ncc2ccccc2n1 (centres unmarked)
2,> 5000 nM,CN(C)c1nnc(C(=O)N2CCc3[nH]cnc3C2c2ccc3ccccc3n2)o1 (centres unmarked)
3,1000 to 5000 nM,CC1CN(C(=O)c2nnc(NC3CC3)o2)C(c2cc3ccccc3cn2)c2nc[nH]c21 (centres unmarked)
4,1000 to 5000 nM,CC1CN(C(=O)c2nnc(N3CCN(C)CC3)o2)C(c2cc3ccccc3cn2)c2nc[nH]c21 (centres unmarked)

# The remaining lines, values behind:
row,Structure (SMILES),AC50
1,"C[C@H](O)c1nnc(C(=O)N2CCc3[nH]cnc3[C@H]2c2cc3ccccc3nn2)o1 (single isomer, unassigned)",1000 to 5000 nM
2,Cc1nc(C(C)(C)F)oc1C(=O)N1CCc2[nH]cnc2C1c1cc2ccccc2cn1 (centres unmarked),1000 to 5000 nM
3,N#Cc1ncoc1C(=O)N1CCc2[nH]cnc2C1c1cn2ccccc2n1 (centres unmarked),> 5000 nM
4,CN1CCN(c2nnc(C(=O)N3CCc4[nH]cnc4[C@H]3c3cc4ccccc4cn3)o2)CC1,1000 to 5000 nM
5,O=C(Cc1ccccn1)N1CCc2[nH]cnc2C1c1cn2ccccc2n1 (centres unmarked),> 5000 nM
6,O=C(c1cnc(C2CC2)s1)N1CCc2[nH]cnc2C1c1cn2ccccc2n1 (centres unmarked),> 5000 nM
7,C[C@H](O)c1nnc(C(=O)N2CCc3[nH]cnc3[C@H]2c2cc3ccccc3cn2)o1,1000 to 5000 nM
8,O=C(c1ocnc1-c1ccccn1)N1CCc2[nH]cnc2C1c1ccc2ccccc2n1 (centres unmarked),1000 to 5000 nM
9,COCc1nnc(C(=O)N2CCc3[nH]cnc3C2c2ccc3ccccc3n2)o1 (centres unmarked),1000 to 5000 nM
10,CC1CN(C(=O)c2oc(-c3ccccn3)nc2C(F)(F)F)C(c2cc3ccccc3cn2)c2nc[nH]c21 (centres unmarked),500 to 1000 nM
11,Cn1nc(COC(F)(F)F)cc1C(=O)N1CCc2[nH]cnc2C1c1ccc2ccccc2n1 (centres unmarked) [listing 1 of 2 here],> 5000 nM
12,CC(C)(F)c1ncc(C(=O)N2CCc3[nH]cnc3C2c2cn3ccccc3n2)o1 (centres unmarked),1000 to 5000 nM
13,Cc1nnc(CCC(=O)N2CCc3[nH]cnc3C2c2cn3ccccc3n2)s1 (centres unmarked),> 5000 nM
14,Cn1nc(COC(F)(F)F)cc1C(=O)N1CCc2[nH]cnc2C1c1ccc2ccccc2n1 (centres unmarked) [listing 2 of 2 here],1000 to 5000 nM

# Same assay, conditions: A375 cells expressing human R408W PAH; 24 hrs compound incubation; 13C-Tyrosine by LC-MS; average where tested multiple times; read-out: AC50
row,AC50,Structure (SMILES)
1,> 5000 nM,"O=C(c1cnco1)N1CCc2[nH]cnc2[C@@H]1c1ncc2ccccc2n1 [Example 150, (R)-oxazol-5-yl(4-(quinazolin-2-yl)-6,7-dihydro-1H-imidazo[4,5-c]pyridin-5(4H)-yl)methanone]"
2,< 500 nM,"O=C(c1nnc(-c2cc[nH]n2)o1)N1CCc2[nH]cnc2C1c1ccc2ccccc2n1 (stereo in doubt) [Example 115, (R)-(5-(1H-pyrazol-3-yl)-1,3,4-oxadiazol-2-yl)(4-(quinolin-2-yl)-6,7-dihydro-1H-imidazo[4,5-c]pyridin-5(4H)-yl)methanone]"
3,500 to 1000 nM,"O=C(c1nnc(-c2cnccn2)o1)N1CCc2[nH]cnc2[C@H]1c1ncc2ccccc2n1 [Example 192, (S)-(5-(pyrazin-2-yl)-1,3,4-oxadiazol-2-yl)(4-(quinazolin-2-yl)-6,7-dihydro-1H-imidazo[4,5-c]pyridin-5(4H)-yl)methanone]"
4,< 500 nM,"CN(C)Cc1ccc2c(C(=O)N3CCc4[nH]cnc4[C@H]3c3cc4ccccc4cn3)cnn2c1 [Example 330, (R)-(6-((dimethylamino)methyl)pyrazolo[1,5-a]pyridin-3-yl)(4-(isoquinolin-3-yl)-6,7-dihydro-1H-imidazo[4,5-c]pyridin-5(4H)-yl)methanone]"
5,< 500 nM,"Cn1cc(C(=O)N2CCc3[nH]cnc3C2c2ccc3ccccc3n2)c(Cl)n1 (stereo in doubt) [Example 88, (R)-(3-chloro-1-methyl-1H-pyrazol-4-yl)(4-(quinolin-2-yl)-6,7-dihydro-1H-imidazo[4,5-c]pyridin-5(4H)-yl)methanone]"
6,< 500 nM,"O=C(c1nnc(-c2ccn(C(F)F)n2)o1)N1CCc2[nH]cnc2[C@H]1c1cc2ccccc2cn1 [Example 426, (R)-(5-(1-(difluoromethyl)-1H-pyrazol-3-yl)-1,3,4-oxadiazol-2-yl)(4-(isoquinolin-3-yl)-6,7-dihydro-1H-imidazo[4,5-c]pyridin-5(4H)-yl)methanone]"
7,< 500 nM,"O=C(c1nnc(-c2cccnc2)o1)N1CCc2[nH]cnc2[C@H]1c1cc2ccccc2cn1 [Example 445, (R)-(4-(isoquinolin-3-yl)-6,7-dihydro-1H-imidazo[4,5-c]pyridin-5(4H)-yl)(5-(pyridin-3-yl)-1,3,4-oxadiazol-2-yl)methanone]"
8,> 5000 nM,"CC(C)(O)c1ncc(C(=O)N2CCc3[nH]cnc3[C@@H]2c2cc3ccccc3cn2)s1 [Example 329, (S)-(2-(2-hydroxypropan-2-yl)thiazol-5-yl)(4-(isoquinolin-3-yl)-6,7-dihydro-1H-imidazo[4,5-c]pyridin-5(4H)-yl)methanone]"

# Continued, molecule first:
row,Structure (SMILES),AC50
1,"O=C(c1cncs1)N1CCc2[nH]cnc2[C@@H]1c1ccc2ccccc2c1 [Example 222, (S)-(4-(naphthalen-2-yl)-6,7-dihydro-1H-imidazo[4,5-c]pyridin-5(4H)-yl)(thiazol-5-yl)methanone]",> 5000 nM
2,"O=C(CC1CC(F)C1)N1CCc2[nH]cnc2[C@@H]1c1cn2ccccc2n1 (stereo partly drawn) [Example 253, (S)-2-(3-fluorocyclobutyl)-1-(4-(imidazo[1,2-a]pyridin-2-yl)-6,7-dihydro-1H-imidazo[4,5-c]pyridin-5(4H)-yl)ethanone]",1000 to 5000 nM
3,"CC(C)(O)c1nc(C2CC2)c(C(=O)N2CCc3[nH]cnc3[C@H]2c2cc3ccccc3cn2)o1 [Example 378, (R)-(4-cyclopropyl-2-(2-hydroxypropan-2-yl)oxazol-5-yl)(4-(isoquinolin-3-yl)-6,7-dihydro-1H-imidazo[4,5-c]pyridin-5(4H)-yl)methanone]",< 500 nM
4,"Cc1ccc(-c2nnc(C(=O)N3CCc4[nH]cnc4[C@H]3c3ncc4ccccc4n3)o2)nc1 [Example 171, (S)-(5-(5-methylpyridin-2-yl)-1,3,4-oxadiazol-2-yl)(4-(quinazolin-2-yl)-6,7-dihydro-1H-imidazo[4,5-c]pyridin-5(4H)-yl)methanone]",< 500 nM
5,"CC(C)(C)c1ncc(C(=O)N2CCc3[nH]cnc3C2c2ccc3ccccc3n2)s1 (stereo in doubt) [Example 3, (R)-(2-(tert-butyl)thiazol-5-yl)(4-(quinolin-2-yl)-6,7-dihydro-1H-imidazo[4,5-c]pyridin-5(4H)-yl)methanone]",< 500 nM
6,"O=C(c1cnn2cc(N3CCCC3)ccc12)N1CCc2[nH]cnc2[C@H]1c1cc2ccccc2cn1 [Example 489, (R)-(4-(isoquinolin-3-yl)-6,7-dihydro-1H-imidazo[4,5-c]pyridin-5(4H)-yl)(6-(pyrrolidin-1-yl)pyrazolo[1,5-a]pyridin-3-yl)methanone]",< 500 nM
7,"O=C(c1ocnc1C(F)F)N1CCc2nc[nH]c2C1c1ccc2ccccc2n1 (stereo in doubt) [Example 51, (R)-(4-(difluoromethyl)oxazol-5-yl)(4-(quinolin-2-yl)-6,7-dihydro-3H-imidazo[4,5-c]pyridin-5(4H)-yl)methanone]",< 500 nM
8,"Cn1cc(-c2ncc(C(=O)N3CCc4[nH]cnc4[C@@H]3c3cc4ccccc4cn3)s2)cn1 [Example 303, (S)-(4-(isoquinolin-3-yl)-6,7-dihydro-1H-imidazo[4,5-c]pyridin-5(4H)-yl)(2-(1-methyl-1H-pyrazol-4-yl)thiazol-5-yl)methanone]",> 5000 nM
9,"C[C@H]1CN(C(=O)c2cnc(-c3ccccn3)o2)[C@H](c2cc3ccccc3cn2)c2nc[nH]c21 [Example 381, ((4R,7S)-4-(isoquinolin-3-yl)-7-methyl-6,7-dihydro-1H-imidazo[4,5-c]pyridin-5(4H)-yl)(2-(pyridin-2-yl)oxazol-5-yl)methanone]",1000 to 5000 nM
10,"O=C(c1cnc(-c2cnn(CC(F)(F)F)c2)s1)N1CCc2[nH]cnc2[C@H]1c1cc2ccccc2cn1 [Example 306, (R)-(4-(isoquinolin-3-yl)-6,7-dihydro-1H-imidazo[4,5-c]pyridin-5(4H)-yl)(2-(1-(2,2,2-trifluoroethyl)-1H-pyrazol-4-yl)thiazol-5-yl)methanone]",500 to 1000 nM
11,"Cn1ccc(-c2nnc(C(=O)N3CCc4[nH]cnc4[C@H]3c3cc4ccccc4cn3)o2)n1 [Example 441, (R)-(4-(isoquinolin-3-yl)-6,7-dihydro-1H-imidazo[4,5-c]pyridin-5(4H)-yl)(5-(1-methyl-1H-pyrazol-3-yl)-1,3,4-oxadiazol-2-yl)methanone]",< 500 nM
12,"O=C(c1nnc(-c2cnn(C(F)F)c2)o1)N1CCc2[nH]cnc2[C@H]1c1cc2ccccc2cn1 [Example 440, (R)-(5-(1-(difluoromethyl)-1H-pyrazol-4-yl)-1,3,4-oxadiazol-2-yl)(4-(isoquinolin-3-yl)-6,7-dihydro-1H-imidazo[4,5-c]pyridin-5(4H)-yl)methanone]",< 500 nM
13,"Cc1cnn(C)c1-c1nnc(C(=O)N2CCc3[nH]cnc3[C@H]2c2cc3ccccc3cn2)o1 [Example 455, (R)-(5-(1,4-dimethyl-1H-pyrazol-5-yl)-1,3,4-oxadiazol-2-yl)(4-(isoquinolin-3-yl)-6,7-dihydro-1H-imidazo[4,5-c]pyridin-5(4H)-yl)methanone]",< 500 nM
14,"O=C(c1cnc(-c2ccc(F)cn2)s1)N1CCc2[nH]cnc2[C@@H]1c1cc2ccccc2cn1 [Example 313, (S)-(2-(5-fluoropyridin-2-yl)thiazol-5-yl)(4-(isoquinolin-3-yl)-6,7-dihydro-1H-imidazo[4,5-c]pyridin-5(4H)-yl)methanone]",1000 to 5000 nM
